# Legend:
# PDE4D2 (h) = PDE4D2 (h) (Homo sapiens, UniProt Q08499); assay: Receptor panel, Study 2; assay type: binding
# Protocol: (§1) RESULTS AND DISCUSSION—Selectivity—The compound of Formula (III) was evaluated in three selectivity panels to assess the potential for off-target pharmacology (Table 8). […] The kinase off-target profile of The compound of Formula (III) was assessed in a full human wild-type panel using radiometric kinase activity assays (KinaseProfiler™ and IC50Profiler™; Eurofins Scientific) (Table 9; FIG. 23). The compound of Formula (III) inhibited 4/278 kinases >50% at 1 micromolar, identifying BTK and the three other kinases having analogous Cys residues with the potential for covalent inhibition (BMX, TEC, BLK). […]. The cellular kinase selectivity of The compound of Formula (III) was established in native Ramos B cell kinome assays (KiNativ™; ActivX) confirmed BTK as the primary target with inhibition of BLK and TEC inhibition detected (Table 10).
# N neuronal α4β2 (h) = N neuronal α4β2 (h) (Homo sapiens, UniProt P17787+P43681); assay: Receptor panel, Study 2; assay type: binding
# Protocol: as §1
# Ach (h) = Ach (h) (Homo sapiens, UniProt P22303); assay: Receptor panel, Study 2; assay type: binding
# Ach (h), sequence (P22303 32-614): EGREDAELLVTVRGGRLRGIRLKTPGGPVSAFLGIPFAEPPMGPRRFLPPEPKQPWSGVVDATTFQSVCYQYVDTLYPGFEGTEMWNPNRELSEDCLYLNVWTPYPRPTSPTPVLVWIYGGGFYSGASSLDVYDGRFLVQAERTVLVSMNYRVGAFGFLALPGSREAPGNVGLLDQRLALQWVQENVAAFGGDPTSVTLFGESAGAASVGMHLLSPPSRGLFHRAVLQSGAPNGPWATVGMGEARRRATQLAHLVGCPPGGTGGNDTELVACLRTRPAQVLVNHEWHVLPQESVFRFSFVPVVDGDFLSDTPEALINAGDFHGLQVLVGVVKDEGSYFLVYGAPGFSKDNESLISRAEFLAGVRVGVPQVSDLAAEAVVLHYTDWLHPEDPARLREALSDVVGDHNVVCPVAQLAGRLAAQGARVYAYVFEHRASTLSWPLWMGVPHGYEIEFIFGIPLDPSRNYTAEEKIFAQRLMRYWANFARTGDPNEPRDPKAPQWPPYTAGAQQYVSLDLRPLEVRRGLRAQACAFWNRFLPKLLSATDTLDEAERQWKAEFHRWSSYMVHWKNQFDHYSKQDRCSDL
# Protocol: as §1
# NMDA = assay: Receptor panel, Study 2; assay type: binding
# Protocol: as §1
# mGluR5 (h) = mGluR5 (h) (Homo sapiens, UniProt P41594); assay: Receptor panel, Study 2; assay type: binding
# mGluR5 (h), sequence (P41594 21-1212): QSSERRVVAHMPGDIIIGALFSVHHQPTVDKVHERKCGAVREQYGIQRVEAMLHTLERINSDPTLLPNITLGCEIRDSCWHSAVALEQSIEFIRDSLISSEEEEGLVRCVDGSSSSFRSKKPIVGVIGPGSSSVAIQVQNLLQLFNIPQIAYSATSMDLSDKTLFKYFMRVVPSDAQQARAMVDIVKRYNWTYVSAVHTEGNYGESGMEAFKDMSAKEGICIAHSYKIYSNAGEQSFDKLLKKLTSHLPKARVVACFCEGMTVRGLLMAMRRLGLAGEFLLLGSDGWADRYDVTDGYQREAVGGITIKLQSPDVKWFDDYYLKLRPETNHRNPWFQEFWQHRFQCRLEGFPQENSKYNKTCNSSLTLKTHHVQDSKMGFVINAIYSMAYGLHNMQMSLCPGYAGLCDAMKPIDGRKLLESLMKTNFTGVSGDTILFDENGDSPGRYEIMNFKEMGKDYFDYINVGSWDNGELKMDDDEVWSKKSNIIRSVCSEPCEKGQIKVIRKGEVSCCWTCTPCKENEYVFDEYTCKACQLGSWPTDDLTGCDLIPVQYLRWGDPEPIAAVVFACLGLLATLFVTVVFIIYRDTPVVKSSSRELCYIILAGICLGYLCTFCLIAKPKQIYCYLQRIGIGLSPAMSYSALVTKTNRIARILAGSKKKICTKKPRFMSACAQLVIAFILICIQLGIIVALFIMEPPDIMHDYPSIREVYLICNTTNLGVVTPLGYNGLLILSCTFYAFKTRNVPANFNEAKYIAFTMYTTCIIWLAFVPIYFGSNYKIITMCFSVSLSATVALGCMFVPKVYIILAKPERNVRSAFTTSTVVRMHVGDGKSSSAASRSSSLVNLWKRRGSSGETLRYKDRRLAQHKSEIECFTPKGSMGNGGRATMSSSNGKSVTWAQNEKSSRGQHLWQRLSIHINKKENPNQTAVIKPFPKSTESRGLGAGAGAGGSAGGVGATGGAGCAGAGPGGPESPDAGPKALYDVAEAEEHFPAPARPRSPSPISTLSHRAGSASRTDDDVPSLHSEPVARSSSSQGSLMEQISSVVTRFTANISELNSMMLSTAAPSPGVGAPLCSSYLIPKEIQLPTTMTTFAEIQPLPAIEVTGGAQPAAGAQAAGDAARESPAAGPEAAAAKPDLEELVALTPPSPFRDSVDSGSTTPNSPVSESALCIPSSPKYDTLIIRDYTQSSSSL
# Protocol: as §1
# GR (h) = GR (h) (Homo sapiens, UniProt P04150); assay: Receptor panel, Study 2; assay type: binding
# GR (h), sequence (P04150 whole entry): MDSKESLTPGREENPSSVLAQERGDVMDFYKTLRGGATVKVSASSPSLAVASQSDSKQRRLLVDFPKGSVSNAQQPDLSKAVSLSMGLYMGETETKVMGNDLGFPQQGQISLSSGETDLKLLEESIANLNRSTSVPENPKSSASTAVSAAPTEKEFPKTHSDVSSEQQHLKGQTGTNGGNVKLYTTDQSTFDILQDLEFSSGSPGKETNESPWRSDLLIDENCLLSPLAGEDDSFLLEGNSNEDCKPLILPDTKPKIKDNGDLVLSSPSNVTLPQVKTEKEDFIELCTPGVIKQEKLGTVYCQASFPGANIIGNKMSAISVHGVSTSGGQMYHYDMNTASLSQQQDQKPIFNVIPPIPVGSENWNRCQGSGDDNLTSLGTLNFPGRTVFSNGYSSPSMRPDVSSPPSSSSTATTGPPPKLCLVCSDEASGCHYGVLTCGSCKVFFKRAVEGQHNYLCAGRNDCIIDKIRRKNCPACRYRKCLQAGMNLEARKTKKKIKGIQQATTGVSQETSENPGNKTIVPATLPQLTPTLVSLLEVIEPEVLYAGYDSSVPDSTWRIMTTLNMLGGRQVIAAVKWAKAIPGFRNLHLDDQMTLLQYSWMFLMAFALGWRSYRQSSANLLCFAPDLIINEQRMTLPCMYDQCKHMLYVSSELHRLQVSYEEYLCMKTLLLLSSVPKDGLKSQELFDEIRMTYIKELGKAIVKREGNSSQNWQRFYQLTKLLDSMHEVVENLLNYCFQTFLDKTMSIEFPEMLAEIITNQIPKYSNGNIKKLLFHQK
# Protocol: as §1
# Beta2 (h) = Beta2 (h) (Homo sapiens, UniProt P07550); assay: Receptor panel, Study 2; assay type: binding
# Protocol: as §1
# CB2 (h) = CB2 (h) (Homo sapiens, UniProt P34972); assay: Receptor panel, Study 2; assay type: binding
# CB2 (h), sequence (P34972 whole entry): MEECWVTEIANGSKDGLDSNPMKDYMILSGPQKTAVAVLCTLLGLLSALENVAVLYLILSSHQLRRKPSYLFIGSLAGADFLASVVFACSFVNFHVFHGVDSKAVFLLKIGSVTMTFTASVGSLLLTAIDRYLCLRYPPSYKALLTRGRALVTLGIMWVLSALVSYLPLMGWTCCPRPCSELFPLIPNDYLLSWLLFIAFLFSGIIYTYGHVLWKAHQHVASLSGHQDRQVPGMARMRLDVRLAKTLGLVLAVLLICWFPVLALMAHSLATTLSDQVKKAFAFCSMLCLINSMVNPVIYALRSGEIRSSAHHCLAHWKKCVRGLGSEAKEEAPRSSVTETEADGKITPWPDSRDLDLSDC
# Protocol: as §1
# Ca channel = assay: Receptor panel, Study 2; assay type: binding
# Protocol: as §1
# PDE3A (h) = PDE3A (h) (Homo sapiens, UniProt Q14432); assay: Receptor panel, Study 2; assay type: binding
# Protocol: as §1
# MAO-A = MAO-A (Rattus norvegicus, UniProt P21396); assay: Receptor panel, Study 2; assay type: binding
# Protocol: as §1
# AR (h) = AR (h) (Homo sapiens, UniProt P10275); assay: Receptor panel, Study 2; assay type: binding
# Protocol: as §1
# [1] = Plasma protein binding, equilibrium dialysis; assay type: in vitro ADME, human
# Protocol: (§2) Additional Data on Preclinical PK Profile—Protein binding of the compound of Formula (III) was studied using an equilibrium dialysis method in plasma from human, cynomolgus monkey, beagle dog, Sprague Dawley rat, CD-1 mouse, and guinea pig at 0.25, 2.5, and 25 μM. […] In human and monkey, the plasma protein binding was concentration dependent. […] Free fraction of the compound of Formula (III) in liver microsomes from various species ranged from 75.1% to 87.9% at 0.25 mg/mL and from 58.9% to 86.5% at 1.0 mg/mL (Table 17). […] In hepatocytes, the compound of Formula (III) turnover followed a similar trend, with T1/2 ranging from 75.3 minutes in monkey to 278.1 minutes in human.
# [2] = Metabolic stability in hepatocytes; assay type: in vitro ADME, monkey
# Protocol: as §2
# BTK [3] = molecular target: BTK (Homo sapiens, UniProt Q06187); assay: Ramos B cell BTK occupancy assay (probe ELISA); assay type: cell-based; parameters: endogenous in cells
# BTK (Homo sapiens, UniProt Q06187), sequence (Q06187 whole entry): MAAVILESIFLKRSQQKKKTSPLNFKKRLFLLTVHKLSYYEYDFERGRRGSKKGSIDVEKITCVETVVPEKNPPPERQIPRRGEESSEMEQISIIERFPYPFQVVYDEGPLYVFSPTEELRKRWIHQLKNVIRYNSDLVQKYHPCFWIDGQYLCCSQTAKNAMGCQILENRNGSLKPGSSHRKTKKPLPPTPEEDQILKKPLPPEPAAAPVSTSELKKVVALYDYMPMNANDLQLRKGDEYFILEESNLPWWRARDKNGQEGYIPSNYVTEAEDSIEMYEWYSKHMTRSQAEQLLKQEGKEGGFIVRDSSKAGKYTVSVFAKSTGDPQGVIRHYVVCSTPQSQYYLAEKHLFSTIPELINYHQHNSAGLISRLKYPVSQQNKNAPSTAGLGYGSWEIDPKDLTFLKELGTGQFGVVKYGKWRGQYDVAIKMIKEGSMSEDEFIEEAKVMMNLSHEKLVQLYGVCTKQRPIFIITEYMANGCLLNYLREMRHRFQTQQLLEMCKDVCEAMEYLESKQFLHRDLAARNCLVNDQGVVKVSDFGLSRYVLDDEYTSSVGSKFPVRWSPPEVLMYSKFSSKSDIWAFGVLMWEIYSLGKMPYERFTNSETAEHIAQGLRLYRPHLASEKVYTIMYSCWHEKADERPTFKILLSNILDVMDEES
# Protocol: In vitro cellular target engagement-The dose-response of BTK occupancy was assessed using a Ramos B cell occupancy assay. Irreversible reaction with […] excludes it from further reaction and enables selective detection of the free (unreacted) BTK with a chemical probe, which utilizes the same binding site and reaction mechanism as the compound of formula (III). The probe carries a biotin sidechain to tag free BTK with an affinity handle to enable detection by ELISA.
# BTK [4] = molecular target: T1, BTK (Rattus norvegicus, UniProt Q5S255); assay: Rat in vivo BTK target engagement (occupancy ELISA in blood); parameters: species or system female Wistar rat; details: read-out: BTK target occupancy after 8 and 24 hours
# T1 construct: Cell lysates were prepared from the blood samples using cell lysis buffer; from tissue; host or cells: blood of female Wistar rats (cell lysates)
# T1 sequence (Q5S255 1-660): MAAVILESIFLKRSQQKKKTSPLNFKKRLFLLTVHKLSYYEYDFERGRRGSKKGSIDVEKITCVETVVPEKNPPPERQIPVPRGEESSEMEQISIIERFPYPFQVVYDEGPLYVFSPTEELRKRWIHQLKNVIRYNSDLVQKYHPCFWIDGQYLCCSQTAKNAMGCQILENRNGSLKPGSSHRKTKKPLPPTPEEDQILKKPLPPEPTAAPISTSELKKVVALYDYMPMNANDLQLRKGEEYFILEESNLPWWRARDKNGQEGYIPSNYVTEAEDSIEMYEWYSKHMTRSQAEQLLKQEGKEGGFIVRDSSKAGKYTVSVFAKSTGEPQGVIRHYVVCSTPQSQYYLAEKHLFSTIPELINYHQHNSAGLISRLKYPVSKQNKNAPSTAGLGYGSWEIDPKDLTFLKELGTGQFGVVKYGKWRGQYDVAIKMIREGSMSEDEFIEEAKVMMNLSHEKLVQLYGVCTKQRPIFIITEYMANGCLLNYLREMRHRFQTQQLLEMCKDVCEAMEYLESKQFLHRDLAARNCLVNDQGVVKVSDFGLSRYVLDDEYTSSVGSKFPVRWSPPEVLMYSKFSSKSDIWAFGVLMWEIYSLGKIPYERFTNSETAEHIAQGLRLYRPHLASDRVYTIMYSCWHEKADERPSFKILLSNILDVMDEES
# Protocol: In Vivo BTK Engagement—BTK receptor occupancy and plasma concentrations of the Compound of Formula (III) increased in a dose-dependent manner following a single oral dose in rat (FIG. 15). Doses of 2 mg/kg or higher consistently achieved sustained target occupancy after 8 and 24 hours (>75% following a 2 mg/kg dose, ≥88% following a 3 mg/kg dose, and ≥99% following a 10 mg/kg dose). Target occupancy was maintained at 24 h even after parent drug plasma levels decreased, indicating persistent BTK occupancy, a hallmark of the covalent mechanism. Considering that 70% to 80% BTK target engagement for 7 to 8 hours in a chronic dosing regimen is associated with anti-inflammatory activity in rodent efficacy models, 75% target engagement at 7.5 hours was identified as the desired level of target engagement.
# BTK Occupancy PK/PD Model—Rat in vivo target engagement—Two studies were conducted in which the compound of Formula (III) formulated in 20% HPCD, was administered orally to female Wistar rats. In study 1, compound of Formula (III) was evaluated at oral doses of 0.3, 1, 3 and 10 mg/kg; in study 2, compound of Formula (III) was evaluated at oral doses of 0.1, 0.3, 1, 2 and 3 mg/kg. (n=4/group for both studies). In both experiments, at assigned time points postdose (0.5, 4, 8 and 24 hr), animals were anesthetized and approximately 140 μL of blood was obtained by retro-orbital bleeding into heparinized tubes. These samples were split into two aliquots, with one aliquot used to measure compound levels by liquid chromatography mass spectrophotometry method and the other aliquot to assess BTK occupancy by a target-site occupancy ELISA.
# Cell lysates were prepared from the blood samples using cell lysis buffer (BD Pharmingen™, BD Biosciences). Free BTK protein in each sample is tagged by the addition a biotinylated probe (1 μL of a 25 μM working solution per sample, final concentration 250 nM), which is then captured on the surface of a streptavidin coated microtiter plate and detected by ELISA using an antibody specific for BTK (BD Transduction). […]
# PDE4D2 (h), sequence (Q08499 303-809 limits assumed): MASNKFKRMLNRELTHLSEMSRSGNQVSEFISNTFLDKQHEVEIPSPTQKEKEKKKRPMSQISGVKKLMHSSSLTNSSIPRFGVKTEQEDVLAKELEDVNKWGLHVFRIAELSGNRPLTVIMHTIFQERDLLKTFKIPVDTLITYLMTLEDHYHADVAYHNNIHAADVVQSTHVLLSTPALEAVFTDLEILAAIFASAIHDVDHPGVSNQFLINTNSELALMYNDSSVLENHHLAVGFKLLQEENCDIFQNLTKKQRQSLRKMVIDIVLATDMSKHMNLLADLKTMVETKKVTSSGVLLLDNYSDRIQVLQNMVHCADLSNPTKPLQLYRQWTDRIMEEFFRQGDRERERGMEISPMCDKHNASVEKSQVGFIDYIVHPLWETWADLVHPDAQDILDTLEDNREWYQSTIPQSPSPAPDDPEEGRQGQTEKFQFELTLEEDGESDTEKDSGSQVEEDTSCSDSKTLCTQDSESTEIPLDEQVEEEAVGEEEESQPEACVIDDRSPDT
structure (smiles),measurement,setting,value
"C=CC(=O)N[C@H]1CCC[C@H]1NC(=O)c1sc2nccc3c2c1NC(=O)N3c1cnc(CC(C)C)cc1C (atropisomer, axis not shown) [compound of Formula (III), N-((1R,2S)-2-Acrylamidocyclopentyl)-5-(S)-(6-isobutyl-4-methylpyridin-3-yl)-4-oxo-4,5-dihydro-3H-1-thia-3,5,8-triazaacenaphthylene-2-carboxamide]",inhibition at 10 µM,PDE4D2 (h),< 10%
same,inhibition at 10 µM,N neuronal α4β2 (h),< 10%
same,inhibition at 10 µM,Ach (h),11%
same,% Inhibition at 10 μM,NMDA,— (no inhibition observed)
same,inhibition at 10 µM,mGluR5 (h),< 10%
same,inhibition at 10 µM,GR (h),< 10%
same,inhibition at 10 µM,Beta2 (h),< 10%
same,inhibition at 10 µM,CB2 (h),< 10%
same,% Inhibition at 10 μM,Ca channel,— (no inhibition observed)
same,inhibition at 10 µM,PDE3A (h),< 10%
same,inhibition at 10 µM,MAO-A,14%
same,inhibition at 10 µM,AR (h),< 10%
same,% Free in plasma,[1]; 2.5 μM,3.1%
same,fraction unbound at 0.25 μM,"[1]; human, plasma, 0.25 μM, read-out: % Free in plasma",0.0169
same,fraction unbound at 25 μM,"[1]; human, plasma, 25 μM, read-out: % Free in plasma",0.0463
same,"Extraction Ratio, hepatocytes",[2],0.78
same,hepatocyte CLint,"[2]; monkey, hepatocytes",66.3 µL/min/1e6 cells
same,half-life,"[2]; monkey, hepatocytes, read-out: T1/2, hepatocytes",1.25 h
same,time to full BTK occupancy,BTK [3]; 100 and 300 nM,≤ 40 min
same,IC50,"BTK [3]; Ramos B cells, n=11, read-out: BTK occupancy IC50 (mean±SD)",21 ± 7 nM
same,receptor occupancy at 2 mg/kg,BTK [4]; single oral 2 mg/kg,> 75%
same,receptor occupancy at 3 mg/kg,BTK [4]; single oral 3 mg/kg,≥ 88%
same,receptor occupancy at 10 mg/kg,BTK [4]; single oral 10 mg/kg,≥ 99%
